Laboratory results taken from PMC7994567, “Characterization of a novel sn1,3 lipase from Ricinus communis L. suitable for production of oleic acid-palmitic acid-glycerol oleate” (Scientific Reports, 2021).

System: T1, RcLipase
T1 construct: catalytic Ser146, Asp211, His276; oxyanion Thr63, Leu147
Experiment: hydrolysis kinetics, Michaelis-Menten non-linear regression
Format: biochemical, Ricinus communis
Details: 20 mM Tris-HCl pH 8.0, 40 °C; substrate 0-1 mM

CCCCCCCC/C=C\CCCCCCCC(=O)OCC(COC(=O)CCCCCCC/C=C\CCCCCCCC)OC(=O)CCCCCCC/C=C\CCCCCCCC [Triolein]
Km: 210 ± 10 µM

CCCCCCCCCCCCCCCC(=O)OCC(COC(=O)CCCCCCCCCCCCCCC)OC(=O)CCCCCCCCCCCCCCC [Tripalmitin]
Km: 170 ± 10 µM
